For one molecule, Activity and IC50 results are on record in ChEMBL document CHEMBL4043140, “Synthesis of different heterocycles-linked chalcone conjugates as cytotoxic agents and tubulin polymerization inhibitors” (Bioorg Med Chem, 2017).

Experiment [1] deals with NCI-H460. Put plainly: Induction of reactive oxygen species generation in human NCI-H460 cells after 6 hrs by DCFDA staining-based method. Type of experiment: functional, cell-based.
For experiment [2], the system named is NCI-H460. Put plainly: Cell cycle arrest in human NCI-H460 cells assessed as accumulation at G2/M phase at 2.5 uM after 24 hrs by propidium iodide staining-based flow cytometry (reference value: 34.71%). Type of experiment: functional. In general terms: Flow cytometry measures light scatter and fluorescence of single cells or particles in a stream.
A short description of experiment [3]: Antiproliferative activity against human U87 cells after 48 hrs by MTT assay. Type of experiment: functional, cell-based, U-87MG ATCC. As to conditions: U-87 MG. (In general: Tetrazolium dyes change colour on reduction, which living cells bring about.)
The test system of experiment [4] is NCI-H460. Put plainly: Cell cycle arrest in human NCI-H460 cells assessed as accumulation at G0/G1 phase at 2.5 uM after 24 hrs by propidium iodide staining-based flow cytometry (reference value: 49.17%). Type of experiment: functional.
Experiment [5] has as its system NCI-H460. Nature of the experiment: Cell cycle arrest in human NCI-H460 cells assessed as accumulation at S phase at 1.25 uM after 24 hrs by propidium iodide staining-based flow cytometry (reference value: 15.55%). Type of experiment: functional.
The test system of the next experiment is PC-3. Put plainly: Antiproliferative activity against human PC3 cells after 48 hrs by MTT assay. Type of experiment: functional, cell-based. As to conditions: PC-3, 48 h.
The test system of experiment [6] is NCI-H460. Nature of the experiment: Cell cycle arrest in human NCI-H460 cells assessed as accumulation at G2/M phase at 5 uM after 24 hrs by propidium iodide staining-based flow cytometry (reference value: 34.71%). The class given is functional.
The subject of experiment [7] is NCI-H460. Put plainly: Induction of morphological changes in human NCI-H460 cells assessed as […] deformation at 1.25 to 5 uM after 48 hrs by phase contrast microscopic analysis. The class given is functional, cell-based.
Experiment [8] deals with NCI-H460. Put plainly: Cell cycle arrest in human NCI-H460 cells assessed as accumulation at S phase at 5 uM after 24 hrs by propidium iodide staining-based flow cytometry (reference value: 15.55%). The class given is functional.
Experiment [9] deals with NCI-H460. Nature of the experiment: Induction of apoptosis in human NCI-H460 cells assessed as reduction in viable cells at 1.25 to 5 uM after 48 hrs by phase contrast microscopic analysis. The class given is functional, cell-based.
Experiment [10] concerns NCI-H460. Nature of the experiment: Cell cycle arrest in human NCI-H460 cells assessed as accumulation at G0/G1 phase at 1.25 uM after 24 hrs by propidium iodide staining-based flow cytometry (reference value: 49.17%). The class given is functional.
The test system of the next experiment is HCT-116. Nature of the experiment: Antiproliferative activity against human HCT116 cells after 48 hrs by MTT assay. As to conditions: HCT-116, 48 h. The class given is functional, cell-based.
The test system of experiment [11] is NCI-H460. Nature of the experiment: Cell cycle arrest in human NCI-H460 cells assessed as accumulation at G2/M phase at 1.25 uM after 24 hrs by propidium iodide staining-based flow cytometry (reference value: 34.71%). Type of experiment: functional.
Experiment [12] can be described thus: Inhibition of porcine brain tubulin polymerization after 1 hr in presence of GTP by fluorescence assay. Set-up: species or system Sus scrofa.
In the next experiment the test system is DU-145. Nature of the experiment: Antiproliferative activity against human DU145 cells after 48 hrs by MTT assay. Type of experiment: functional, cell-based. The note with it: DU-145, 48 h.
Experiment [13] deals with NCI-H460. Put plainly: Induction of reactive oxygen species generation in human NCI-H460 cells after 6 hrs in presence of NAC by DCFDA staining-based method. The class given is functional, cell-based.
The test system of experiment [14] is NCI-H460. Nature of the experiment: Cell cycle arrest in human NCI-H460 cells assessed as accumulation at S phase at 2.5 uM after 24 hrs by propidium iodide staining-based flow cytometry (reference value: 15.55%). Type of experiment: functional.
For experiment [15], the system named is NCI-H460. Nature of the experiment: Cell cycle arrest in human NCI-H460 cells assessed as accumulation at G0/G1 phase at 5 uM after 24 hrs by propidium iodide staining-based flow cytometry (reference value: 49.17%). The class given is functional.
Experiment [16] deals with NCI-H460. Nature of the experiment: Antiproliferative activity against human NCI-H460 cells after 48 hrs by MTT assay. Type of experiment: functional, cell-based. As to conditions: NCI-H460, 48 h.
In another experiment the test system is A549. Nature of the experiment: Antiproliferative activity against human A549 cells after 48 hrs by MTT assay. Type of experiment: functional, cell-based. As to conditions: A549, 48 h.
The subject of experiment [17] is NCI-H460. Nature of the experiment: Induction of morphological changes in human NCI-H460 cells assessed as cell shrinkage at 1.25 to 5 uM after 48 hrs by phase contrast microscopic analysis. Type of experiment: functional, cell-based.
Experiment [18] concerns NCI-H460. Put plainly: Induction of apoptosis in human NCI-H460 cells assessed as horse-shoe shaped nuclei at 2.5 to 10 uM after 24 hrs by DAPI staining-based fluorescence microscopic analysis. Type of experiment: functional, cell-based.
The subject of another experiment is HCT-15. Put plainly: Antiproliferative activity against human HCT15 cells after 48 hrs by MTT assay. The class given is functional, cell-based. The note with it: HCT-15, 48 h.

The source made the active and inactive calls. The rule behind the calls is not given here.

A word on the IC50: it is the concentration that gives 50% inhibition. As for `COc1ccc(C(=O)/C=C/c2ccc(OCCCN3CCCCC3)c(OC)c2)cc1`, the Activity result in the experiment on NCI-H460 [1] was “Dose-dependent effect”; in the experiment with NCI-H460 [2] it was 42.88%; in the experiment on NCI-H460 [4] it was 46.74%; in the experiment with NCI-H460 [5], 12.21%; with NCI-H460 [6], 48.85%; in the experiment on NCI-H460 [8], 8.12%. Moreover, the Activity in the experiment on NCI-H460 [10] is listed as 47.5%; with NCI-H460 [11] it was 39.3%; in the experiment on NCI-H460 [14] it was 9.3%; with NCI-H460 [15] it was 42.8%. For the same molecule, the IC50 in experiment [3] was 6.3 µM; in the experiment on PC-3 it was 9.53 µM; with HCT-116 it was 1730 nM; in [12] it was 9.66 µM; with DU-145, 5.08 µM; in the experiment with NCI-H460 [16], 1480 nM. In addition, the IC50 was 3.29 µM in the experiment with A549 and 5.34 µM with HCT-15. Moreover, the outcome in the experiment with NCI-H460 [7], in the experiment with NCI-H460 [9], with NCI-H460 [17] and with NCI-H460 [18] was Active. Besides, the outcome in the experiment on NCI-H460 [13] was inactive.
